Like-named read-outs stand apart in the source and are kept apart here.
What was measured:
Type in all cases: in vivo
[1] = tested on: diamondback moth (Plutella xylostella L.); experiment: Test E: diamondback moth control on mustard plants, contact and/or systemic, plant damage rating after 6 days
Procedure: (§1) The pest control protection afforded by the mixtures or compositions is not limited, however, to these species. The analysis of enhanced activity between the mixtures or compositions was determined using Colby's equation. The average % mortality data for the test compounds alone were inserted into the Colby's equation. If the observed (obs) average % mortality was higher than “p”, the expected (exp) % mortality, the mixture or composition had enhanced effects. If the observed average % mortality was equal to or lower than the expected mortality, the mixture or composition either had no enhanced effect. For bioassays where insect feeding damage was evaluated, enhanced activity is identified when the observed plant damage is less than the expected plant damage rating; ratings ranged between 0 (no damage) and 10 (dead plant) and each value was converted to a % plant protection. 100−(Obs Plant Damage*10)
For evaluating control of diamondback moth (Plutella xylostella L.) through contact and/or systemic means, each test unit consisted of a small open container with a 10- to 12-day-old mustard plant inside. Test compounds were formulated and sprayed with 3 replications as described for Test A. After spraying, the test units were allowed to dry for 1 hour before they were infested with 30-50 neonate larvae. A black, screened cap was placed on the top of each container. The test units were held for 6 days in a growth chamber at 24-25° C. and 70% relative humidity. Each test unit was then visually assessed for plant damage and rated 0-10, where 0=undamaged and 10=plant is dead; the results are listed in Tables 6a-b.

[2] = tested on: silverleaf whitefly (Bemisia argentifolii Bellows and Perring); experiment: Test A: silverleaf whitefly control on cotton or soybean plants, spray, insect mortality after 13 days; details: Bemisia argentifolii, applied alone, read-out: % Mortality (obs)
Outline: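 Cotton (12–14-day) or soybean (5–7-day) plants carrying whitefly eggs were sprayed with compound in 10% acetone/water with non-ionic surfactant. Plants were held 13 days at 28°C and 50–70% RH; mortality was averaged over three replicates. Mixture enhancement was judged against Colby-expected values.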

[3] = tested on: cotton melon aphid (Aphis gossypii Glover); experiment: Test D: cotton melon aphid control on okra plants, insect mortality after 6 days; details: Aphis gossypii, read-out: % Mortality (obs)
Outline: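 Okra plants (6–7 days old) pre-infested with 30–40 aphids by cut-leaf transfer were sprayed, three replicates, then held 6 days at 19-21° C and 50-70% RH before mortality scoring. Mixture enhancement was judged against Colby-expected % mortality.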

[4] = tested on: fall armyworm (Spodoptera frugiperda (J. E. Smith)); experiment: Test E: fall armyworm control on corn plants, plant damage rating and mortality after 6 days; details: Spodoptera frugiperda, 144 h, read-out: Plant Protection (obs)
Procedure: as §1
For evaluating control of fall armyworm (Spodoptera frugiperda (J. E. Smith)) the test unit consisted of a small open container with a 4-5-day-old corn (maize) plant inside. This was pre-infested with 10-15 1-day-old larvae on a piece of insect diet. Test compounds were formulated and sprayed with 3 replications as described for Test A. After spraying of the formulated test compound, the test units were maintained in a growth chamber for 6 days at 25° C. and 70% relative humidity. Plant feeding damage was then visually assessed based on foliage consumed, and larvae were assessed for mortality. Each test unit was then visually assessed for plant damage and rated 0-10, where 0=undamaged and 10=plant is dead; the results are listed in Tables 6d-i.

## CSCC(C)(C)NC(=O)c1ccc(F)c2nn(-c3cccnc3)cc12 [Cpd 1, N-[1,1-dimethyl-2-(methylthio)ethyl]-7-fluoro-2-(3-pyridinyl)-2H-indazole-4-carboxamide]
[1]; Table 6a, 50 ppm
  Plant Protection (obs): 0.0
[1]; Table 6a, 250 ppm
  Plant Protection (obs): 0.0
[1]; Table 6b, 50 ppm
  Plant Protection (obs): 0.0
[1]; Table 6b, 250 ppm
  Plant Protection (obs): 0.0
[2]; 2 h, Table 2h
  mortality at 50 ppm: 2.4%
  mortality at 250 ppm: 7.6%
[2]; 48 h, Table 2d
  mortality at 50 ppm: 0%
  mortality at 250 ppm: 1.3%
[2]; Table 2a
  mortality at 50 ppm: 0%
  mortality at 250 ppm: 18.8%
[2]; Table 2b
  mortality at 50 ppm: 80%
  mortality at 250 ppm: 0%
[2]; Table 2c
  mortality at 50 ppm: 0%
  mortality at 250 ppm: 3.1%
[2]; Table 2e
  mortality at 50 ppm: 0%
  mortality at 250 ppm: 2.2%
[2]; Table 2f
  mortality at 50 ppm: 9.3%
  mortality at 250 ppm: 0%
[2]; Table 2g
  mortality at 50 ppm: 2.6%
  mortality at 250 ppm: 2.1%
[3]; 5 h, Table 5h
  mortality at 0.08 ppm: 37.3%
  mortality at 0.12 ppm: 50.5%
[3]; 120 h, Table 5d
  mortality at 0.08 ppm: 23.8%
  mortality at 0.12 ppm: 49.8%
[3]; Table 5a
  mortality at 0.08 ppm: 23.8%
  mortality at 0.12 ppm: 49.8%
[3]; Table 5b
  mortality at 0.08 ppm: 23.8%
  mortality at 0.12 ppm: 49.8%
[3]; Table 5c
  mortality at 0.08 ppm: 100%
  mortality at 0.12 ppm: 26.7%
[3]; Table 5e
  mortality at 0.08 ppm: 21.3%
  mortality at 0.12 ppm: 35.3%
[3]; Table 5f
  mortality at 0.08 ppm: 20.8%
  mortality at 0.12 ppm: 39.4%
[3]; Table 5g
  mortality at 0.08 ppm: 29.1%
  mortality at 0.12 ppm: 35.9%
[4]; Table 6e
  pest or weed control at 50 ppm: 0%
  pest or weed control at 250 ppm: 0%

## CC1(NC(=O)c2cccc3nn(-c4cccnc4)cc23)CC1 [Cpd 4, N-(1-methylcyclopropyl)-2-(3-pyridinyl)-2H-indazole-4-carboxamide]
[1]; Table 6a, 50 ppm
  Plant Protection (obs): 0.0
[1]; Table 6a, 250 ppm
  Plant Protection (obs): 0.0
[1]; Table 6b, 50 ppm
  Plant Protection (obs): 0.0
[1]; Table 6b, 250 ppm
  Plant Protection (obs): 0.0
[2]; 2 h, Table 2h
  mortality at 50 ppm: 0.9%
  mortality at 250 ppm: 9.2%
[2]; 48 h, Table 2d
  mortality at 50 ppm: 4.9%
  mortality at 250 ppm: 8.3%
[2]; Table 2a
  mortality at 50 ppm: 5.9%
  mortality at 250 ppm: 11.1%
[2]; Table 2b
  mortality at 50 ppm: 46.7%
  mortality at 250 ppm: 20%
[2]; Table 2c
  mortality at 50 ppm: 16.1%
  mortality at 250 ppm: 20.5%
[2]; Table 2e
  mortality at 50 ppm: 29%
  mortality at 250 ppm: 38.3%
[2]; Table 2f
  mortality at 50 ppm: 15%
  mortality at 250 ppm: 17.9%
[2]; Table 2g
  mortality at 50 ppm: 30.6%
  mortality at 250 ppm: 23.1%
[2]; Table 2i
  mortality at 50 ppm: 7%
  mortality at 250 ppm: 8%
[3]; 5 h, Table 5h
  mortality at 0.2 ppm: 44.6%
  mortality at 0.5 ppm: 68.7%
[3]; 120 h, Table 5d
  mortality at 0.2 ppm: 48.3%
  mortality at 0.5 ppm: 58.9%
[3]; Table 5a
  mortality at 0.2 ppm: 48.3%
  mortality at 0.5 ppm: 58.9%
[3]; Table 5b
  mortality at 0.2 ppm: 48.3%
  mortality at 0.5 ppm: 58.9%
[3]; Table 5c
  mortality at 0.2 ppm: 6.7%
  mortality at 0.5 ppm: 6.7%
[3]; Table 5e
  mortality at 0.2 ppm: 30.8%
  mortality at 0.5 ppm: 69.7%
[3]; Table 5f
  mortality at 0.2 ppm: 40.7%
  mortality at 0.5 ppm: 73.4%
[3]; Table 5g
  mortality at 0.2 ppm: 21%
  mortality at 0.5 ppm: 45.1%
[3]; Table 5i
  mortality at 0.2 ppm: 33.5%
  mortality at 0.5 ppm: 80.3%
[3]; Table 5j
  mortality at 0.2 ppm: 33.5%
  mortality at 0.5 ppm: 80.3%
[3]; Table 5k
  mortality at 0.2 ppm: 40.2%
  mortality at 0.5 ppm: 69.3%
[3]; Table 5l
  mortality at 0.2 ppm: 40.2%
  mortality at 0.5 ppm: 69.3%
[3]; Table 5m
  mortality at 0.2 ppm: 42.5%
  mortality at 0.5 ppm: 65%
[3]; Table 5n
  mortality at 0.2 ppm: 57.1%
  mortality at 0.5 ppm: 73.9%
[4]; Table 6e
  pest or weed control at 50 ppm: 0%
  pest or weed control at 250 ppm: 0%
[4]; Table 6f
  pest or weed control at 50 ppm: 0%
  pest or weed control at 250 ppm: 0%
[4]; Table 6g
  pest or weed control at 50 ppm: 0%
  pest or weed control at 250 ppm: 20%
[4]; Table 6i
  pest or weed control at 50 ppm: 0%
  pest or weed control at 250 ppm: 0%
[4]; Table 6h
  pest or weed control at 50 ppm: 0%
  pest or weed control at 250 ppm: 20%
[4]; Table 6d
  pest or weed control at 50 ppm: 0%
  pest or weed control at 250 ppm: 0%

Reference: patent publication US12419307B2, “Mixtures comprising indazole pesticides” (FMC Corporation, priority 2019, dated 2025)
